Measurements: patent US7910750B2, “Artemisinin (qinghaosu) derivatives, their preparation methods and their use, and pharmaceutical compositions containing the same” (Shanghai Institute of Materia Medica, Chinese Academy of …, priority 2005, dated 2011)

Tests used:
T lymphocyte = assay: Lymphocyte proliferation test, T lymphocyte proliferation response induced by ConA ([3H]-thymidine); type: cell-based, mouse; conditions: mouse spleen cells, ConA, 48 hours; read-out: Inhibiting activity of T lymphocyte proliferation response induced by ConA IC50
Description: B. Lymphocyte Proliferation Test […] […] 3. After incubated in 5% CO2 incubator at 37° C. for 48 hours, 0.5 μCi [^3H]-thymidine (25 μL/well) was added into each well 7-8 hours before the termination of the incubation. 4.

[1] = test system: BALB/c mouse spleen cells; assay: Lymphocytotoxicity test (MTT); type: cell-based; conditions: mouse spleen cells, 48 hours, read-out: Lymphocytotoxicity CC50
Description: A. Lymphocytotoxicity Test
1. BALB/c mice were killed by cervical dislocation, and their spleens were removed aseptically. A single spleen cell suspension was prepared and cell debris and clumps were removed.
2. 80 μL cell suspension, 40 μL testing sample, 40 μL medium containing 10% FBS were added into 96 well plate; for the control group, 80 μL medium was added the total volume was 160 μL, and blank control group was set.
3. After incubated in 5% CO2 incubator at 37° C. for 48 hours, 16 μL MTT (5 mg/mL) reagent was added into each well 6-7 hours before the termination of the incubation.

B lymphocyte = assay: Lymphocyte proliferation test, B lymphocyte proliferation response induced by LPS ([3H]-thymidine); type: cell-based, mouse; conditions: mouse spleen cells, LPS, 48 hours; read-out: Inhibiting activity of B lymphocyte proliferation response induced by LPS IC50
Description: 3. After incubated in 5% CO2 incubator at 37° C. for 48 hours, 0.5 μCi [^3H]-thymidine (25 μL/well) was added into each well 7-8 hours before the termination of the incubation. 4.

| Structure (SMILES) | IC50 (T lymphocyte) | CC50 [1] | IC50 (B lymphocyte) |
| --- | --- | --- | --- |
| CC(C(=O)O)c1ccc(OC2OC3OC4(C)CCC5C(C)CCC(C2C)C35OO4)cc1 (stereo not drawn) [compound 22, 2-[4-(12β-artemisininoxy)phenyl] propanoic acid] | 3.6 µM | 59.6 µM | 8.6 µM |
| COc1ccccc1OC(=O)C(C)c1ccc(OC2OC3OC4(C)CCC5C(C)CCC(C2C)C35OO4)cc1 (stereo not drawn) [compound 23, o-methoxy-phenyl 2-[4-(12β-artemisininoxy)phenyl] propionate] | 0.527 µM | 5.33 µM | 0.0947 µM |
| CCOC(=O)C(C)Oc1ccc(OC2OC3OC4(C)CCC5C(C)CCC(C2C)C35OO4)cc1 (stereo not drawn) [compound 24, ethyl 2-[4-(12β-artemisininoxy)phenoxy] propionate] | 0.26 µM | 17.6 µM | 0.85 µM |
| CC(Oc1ccc(OC2OC3OC4(C)CCC5C(C)CCC(C2C)C35OO4)cc1)C(=O)O (stereo not drawn) [compound 25, 2-[4-(12β-artemisininoxy)phenoxy] propanoic acid] | 7.27 µM | 24.3 µM | 0.86 µM |
| COc1ccccc1OC(=O)C(C)Oc1ccc(OC2OC3OC4(C)CCC5C(C)CCC(C2C)C35OO4)cc1 (stereo not drawn) [compound 26, o-methoxy-phenyl 2-[4-(12β-artemisininoxy)phenoxy] propionate] | 2.33 µM | 39.1 µM | 0.27 µM |
| COc1ccccc1OC(=O)C(C)Oc1cccc(OC2OC3OC4(C)CCC5C(C)CCC(C2C)C35OO4)c1 (stereo not drawn) [compound 27, o-methoxy-phenyl 2-[3-(12β-Artemisininoxy)phenoxy] propionate] | 4.12 µM | 2.99 µM | 0.57 µM |
| CCOC(=O)C(C)Oc1cccc(OC2OC3OC4(C)CCC5C(C)CCC(C2C)C35OO4)c1 (stereo not drawn) [compound 28, ethyl 2-[3-(12α-artemisininoxy)phenoxy] propionate] | 3.59 µM | 2.99 µM | 0.56 µM |
| CC(Oc1cccc(OC2OC3OC4(C)CCC5C(C)CCC(C2C)C35OO4)c1)C(=O)O (stereo not drawn) [compound 29, 2-[3-(12α-artemisininoxy)phenoxy] propanoic acid] | 8.6 µM | 35.1 µM | 0.74 µM |
| COc1ccccc1OC(=O)C(C)Oc1cccc(OC2OC3OC4(C)CCC5C(C)CCC(C2C)C35OO4)c1 (stereo not drawn) [compound 30, o-methoxy-phenyl 2-[3-(12α-artemisininoxy)phenoxy] propionate] | 5.73 µM | 8.23 µM | 0.82 µM |
